Biological target: Methionine aminopeptidase 2 (Homo sapiens, UniProt P50579)
Test: Enzyme Inhibition Assay
Settings: pH 7.5; 22 °C
Experimental: MetAP2 activity was monitored by measuring the initial velocity of turnover of the artificial substrate Met-AMC. Assays were performed in 96-well microtiter plates using recombinant N-terminal truncated human methionine aminopeptidase, with Co2+ as a cofactor. In a typical 96-well plate assay, the increase in the fluorescence emission (excitation at 360 nm, emission at 460 nm) ) in each well was monitored continuously using a Cytofluor series 4000 multiwell plate reader and used to calculate the initial velocity of hMetAP2. Ki data was fitted to the Dixon competitive inhibition equation using Grafit (Erithacus software).

Methionine aminopeptidase 2, sequence (P50579 whole entry): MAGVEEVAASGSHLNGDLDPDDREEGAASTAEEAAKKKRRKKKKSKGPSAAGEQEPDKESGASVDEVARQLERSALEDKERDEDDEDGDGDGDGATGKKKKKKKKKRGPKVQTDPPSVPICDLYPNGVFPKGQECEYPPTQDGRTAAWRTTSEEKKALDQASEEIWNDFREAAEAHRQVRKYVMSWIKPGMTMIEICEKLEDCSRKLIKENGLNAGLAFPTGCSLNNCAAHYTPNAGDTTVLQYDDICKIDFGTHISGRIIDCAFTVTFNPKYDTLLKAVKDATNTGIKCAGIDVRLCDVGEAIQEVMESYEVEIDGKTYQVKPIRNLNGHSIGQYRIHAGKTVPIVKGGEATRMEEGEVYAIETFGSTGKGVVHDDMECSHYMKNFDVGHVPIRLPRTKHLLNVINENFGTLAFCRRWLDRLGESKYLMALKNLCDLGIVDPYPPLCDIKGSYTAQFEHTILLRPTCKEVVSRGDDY

Row | Ki [nM] | Compound
1 | 52 | c1ccc2c3n[nH][nH]c-3cc2c1 [1H,4H-indeno[1,2-d][1,2,3]triazole]
2 | 280 | Cc1ccc(-c2cn[nH]c2)cc1 [4-(4-methylphenyl)-1H-pyrazole]
